{
  "source": "patent US7504096B1",
  "about": "“Methods for in vitro fertilization” (The United States of America as represented by the …, priority 1999, dated 2009)",
  "system": "ovariectomized mice",
  "assay": "Blastocyst implantation after embryo transfer in ovariectomized, steroid-primed mice (LIF as replacement for nidatory estrogen)",
  "format": "in vivo",
  "settings": "for Nos. Implanted / Nos. Pregnant: E2 1 injection of 40 ng or LIF 3 injections of 5 μg 1 hour apart, analysis four days later",
  "experimental": "Mice were ovariectomized and allowed to recover for 18 days before starting experimental manipulation. Priming of the uterus by steroid hormones was started by the injection of 100 ng of Estrogen on each of 3 consecutive days. On the 6th day the mice were given a single injection of Progesterone in the form of Depo-Provera. Three days later an average of 6 blastocysts, either directly isolated from females or from cultures started the previous day when the embryos were at the 8-cell stage were surgically transferred to the right uterine horn. After the mice had recovered from surgery they were either given 1 injection of 40 ng of estrogen or 3 injections, 1 hour apart, of 5 μg LIF. Four days later (equivalent to Day 7-8 of pregnancy) the mice were sacrificed for analysis, and the implantation sites recovered.",
  "key": {"[1]": {"settings": "Blastocyst type at time of transfer: D4 cultured, E2 36 blastocysts (6 recipients), LIF 42 (7)"}, "[2]": {"settings": "Blastocyst type at time of transfer: D4 direct, 36 blastocysts in 6 recipients"}},
  "data": [
    {"substance": "LIF: cytokine Leukemia Inhibitory Factor, recombinant, member of the IL-6 family of cytokines", "values": [
      {"measurement": "Nos. Implanted", "setting": "[1]", "value": 16},
      {"measurement": "Nos. Pregnant", "setting": "[1]", "value": 5},
      {"measurement": "Nos. Implanted", "setting": "[2]", "value": 30},
      {"measurement": "Nos. Pregnant", "setting": "[2]", "value": 6},
      {"measurement": "Inducing embryo implantation in place of estrogen (result in words)", "setting": "injection of LIF versus injection of estrogen, Table 1 protocol", "value": "can unequivocally replace the injection of estrogen for inducing embryo implantation"}
    ]}
  ]
}
